In patent publication US20170002048A1, “METHOD FOR PURIFYING AND RE[…] BODIES OF SCORPION TOXIN PROTEIN AND THEIR USE” (GUANGZHOU GLAM BIOTECHNOLOGY CO., LTD., priority 2015, published 2017):

Test system: HepG2 tumor
Test: Anti-tumor activity in vivo, HepG2 mice model
Set-up: species or system CD-1 nu/nu mice
Settings: CHis6-rAGAP 1 and 2 mg/kg, 5-FU 25 mg/kg, every 2 days
Protocol: The CD-1 nu/nu mice (thymus removed, bodyweight 16˜18 g, half male and half female) were purchased from Shanghai Experiment Animal Center of Chinese Academy of Sciences. The mice were subcutaneously injected 5×10^6 HepG2 cells to make a model, when the tumor volume was grew to about 100 mm^3, the mice were randomized into four groups, 10 mice in each group, the experiment groups were respectively injected 1 mg/kg and 2 mg/kg of CHis6-rAGAP, the positive control group were injected 25 mg/kg of 5-FU, the negative control group was injected with normal saline, the volumes were all 200 μl/2 days. The change of tumor volume and bodyweight of the mice were determined every 2 days, after 18 days the mice were killed, and the tumor were taken out. […] In order to evaluate the influence of CHis6-rAGAP and 5-FU on life quality of the mice, change of mice bodyweight was also determined during the experiment. […] Furthermore, after 18 days of drug administration, there was no death case in the mice of CHis6-rAGAP administration group, whereas 40% of the mice in 5-FU group were dead.

## O=c1[nH]cc(F)c(=O)[nH]1 [5-FU]
  death of mice after 18 days of drug administration: 40%
18 days
  influence on bodyweight of the mice: reduced significantly
